Results published in patent EP0552417B1, “Cyclic peptides and use thereof” (priority 1991, dated 1993).
Like-named read-outs stand apart in the source and are kept apart here. Non-standard residues stand in square brackets, D forms with d. Residues, ends and D or L forms follow the SMILES beside them. *: point of attachment. Hyp = O=C(O)[C@@H]1C[C@@H](O)CN1; d2Thi = N[C@H](Cc1cccs1)C(=O)O; Pip = O=C(O)[C@@H]1CCCCN1; Aze = O=C(O)[C@@H]1CCN1; For = O=C*

Tests used:
[1] = target: T1, endothelin receptor A (ETA) (Sus scrofa, UniProt Q29010); experiment: Assay of affinity for receptor (1): binding activity on ETA receptor, 125I-labeled endothelin-1, porcine heart membrane fraction; parameters: key: relative specific activity; reference cyclic pentapeptide ETA binding = 1.0; conditions: specific activity, taking the binding activity of control cyclo[-D-Glu-Ala-D-aIle-Leu-D-Trp-] on receptor A as 1.0, 25°C, 1 hour
T1 construct: A membrane fraction prepared from the porcine heart; from tissue; host or cells: porcine heart membrane fraction
T1 sequence (Q29010 21-427): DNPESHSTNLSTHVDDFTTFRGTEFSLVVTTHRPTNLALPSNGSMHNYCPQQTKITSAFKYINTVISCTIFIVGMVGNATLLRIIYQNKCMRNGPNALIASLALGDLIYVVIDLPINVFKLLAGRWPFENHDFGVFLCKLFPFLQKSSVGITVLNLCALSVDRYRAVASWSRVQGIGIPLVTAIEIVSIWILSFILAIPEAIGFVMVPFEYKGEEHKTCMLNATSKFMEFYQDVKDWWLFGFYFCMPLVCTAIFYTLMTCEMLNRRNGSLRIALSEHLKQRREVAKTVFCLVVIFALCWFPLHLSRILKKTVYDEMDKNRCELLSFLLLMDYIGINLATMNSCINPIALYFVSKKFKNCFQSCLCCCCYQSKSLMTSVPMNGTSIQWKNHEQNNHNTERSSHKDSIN
Procedure: Assay of Affinity for Receptor (1) ... Binding Activity on ETA Receptor
A membrane fraction prepared from the porcine heart was diluted to 0.15 mg/ml by using a buffer solution for assay, and 100 µl of the resulting suspension of the membrane fraction was poured into each assay tube to use for assay. To this suspension of the membrane fraction was added 2 µl of 5 nM ^125I-labeled endothelin-1 solution. Further, 3 µl of a test peptide solution was added thereto, followed by incubation at a temperature of 25°C for 1 hour. Then, the resulting suspension was diluted with 900 µl of the buffer solution for assay cooled with ice, and thereafter separated into a supernatant and a precipitate by centrifugation at 12,000 X g for 10 minutes. Cell membranes and an endothelin receptor A (ETA) embedded therein were contained in the precipitate, and radioactive iodine-labeled endothelin combined with the receptor was also recovered in the precipitate. Accordingly, the amount of radioactive iodine-labeled endothelin combined with the endothelin receptor A (ETA) was determined by measuring the amount of radioactive iodine contained in the precipitate with a gamma-ray counter. The cyclic pentapeptide described in Japanese Patent Application No. 2-413328/1990, cyclo[-D-Glu-Ala-D-aIle-Leu-D-Trp-], was used as a control compound. The numerical value of ETA shown in Table 1 is the value of specific activity, taking the binding activity of this cyclic pentapeptide on the receptor A as 1.0. The binding activity (IC50) of this cyclic pentapeptide on the ETA receptor is 2x10^-6 M.

[2] = target: T2, endothelin receptor B (ETB) (Bos taurus, UniProt P28088); experiment: Assay of affinity for receptor (2): binding activity on ETB receptor *1, 125I-labeled endothelin-1, bovine brain membrane fraction; conditions: specific activity, taking the binding activity of the compound of Example 8 on receptor B as 100, 25°C, 1 hour
T2 construct: A membrane fraction prepared from the bovine brain; from tissue; host or cells: bovine brain membrane fraction
T2 sequence (P28088 27-441): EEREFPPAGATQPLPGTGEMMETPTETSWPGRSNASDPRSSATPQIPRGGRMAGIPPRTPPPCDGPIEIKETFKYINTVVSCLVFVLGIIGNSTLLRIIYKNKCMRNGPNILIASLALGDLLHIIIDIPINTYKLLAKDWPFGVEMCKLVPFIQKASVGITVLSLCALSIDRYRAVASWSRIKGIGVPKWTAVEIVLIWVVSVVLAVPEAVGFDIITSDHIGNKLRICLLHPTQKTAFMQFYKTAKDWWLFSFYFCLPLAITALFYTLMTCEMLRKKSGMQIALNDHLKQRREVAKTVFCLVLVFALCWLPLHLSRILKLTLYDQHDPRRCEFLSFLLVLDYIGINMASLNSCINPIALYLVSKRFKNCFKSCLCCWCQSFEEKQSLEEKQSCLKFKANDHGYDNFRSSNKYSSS
Procedure: Assay of Affinity for Receptor (2) ... Binding Activity on ETB Receptor *1
A membrane fraction prepared from the bovine brain was diluted to 0.15 mg/ml by using a buffer solution for assay, and 100 µl of the resulting suspension of the membrane fraction was poured into each assay tube to use for assay. To this suspension of the membrane fraction was added 2 µl of 5 nM ^125I labeled endothelin-1 solution. Further, 3 µl of a test peptide solution was added thereto, followed by incubation at a temperature of 25°C for 1 hour. Then, the resulting suspension was diluted with 900 µl of the buffer solution for assay cooled with ice, and thereafter separated into a supernatant and a precipitate by centrifugation at 12,000 X g for 10 minutes. Cell membranes and an endothelin receptor B (ETB) embedded therein were contained in the precipitate, and radioactive iodine-labeled endothelin bound to the receptor was also recovered in the precipitate. Accordingly, the amount of radioactive iodine-labeled endothelin bound to the endothelin receptor B (ETB) was determined by measuring the amount of radioactive iodine contained in the precipitate with a gamma-ray counter. The numerical value of ETB shown in Table 1 is the value of specific activity, taking the binding activity of the compound of Example 8 on the receptor B as 100.

ETB = ETB radio receptor assay *2, 125I-endothelin-1, guinea pig kidney crude membrane fraction; assay type: binding, Guinea pigs; conditions: relative activity, 37 °C, 90 minutes
Procedure: ETB Radio Receptor Assay *2
In the endothelin radio receptor assay, guinea pigs' kidneys were used. Guinea pigs (Std Hartrey, male 250 g, Japan SLC Ltd.) were made to have a cerebral concussion and sacrificed by bleeding from carotid arteries to pick up the kidneys and removed fat therefrom to prepare the kidneys. The obtained kidneys were sliced and homogenized by politron homogenizer in 20 ml of 50 mM Tris-HCl buffer [pH 7.4; 20 mM NaHCO3, 0.1 mM PMSF (Phenylmethylsulfonyl Fluoride), 1 mM EDTA (Ethylenediaminetetraacetic acid)] per one kidney. The homogenized kidney was applied to a centrifugation at 1,000 x g for 15 minutes and the supernatant was further applied to a centrifugation for 20 minutes at 30,000 x g. The resulting precipitate was twice washed with 50 mM Tris-HCl buffer (pH 7.4) containing 0.1 mM PMSF, 1 mM EDTA. The resultant was stored at -80 °C as a crude receptor membrane fraction and was used as the suspension in the following buffer when necessary.
740 Bq of ^125I-endothelin-1 (81.4 TBq/mmol, Du Pont, USA) as a radio ligand, the crude membrane fraction (2.1 µg protein) and samples were added to the following buffer. The reaction was performed at 37 °C, for 90 minutes in 0.2 ml of the buffer [50 mM Tris-HCl buffer (pH 7.4) containing 0.1 mM PMSF, 1 mM EDTA, 0.2% bovine serum albumin].
The reaction was stopped by fast filtration on a glass filter (GF/B, Wattman, USA) by Cell Harvestor (290 PHD, Cambridge-Technology, Great Britain), and the filter was three times washed with 50 mM Tris-HCl buffer (pH 7.4). Radio activity remained on the filter was assayed by a gamma counter.

[3] = amide bond, 18-membered ring, DMF, 4 steps
[4] = HONB/DCC (preactivation), HCl/dioxane, TEA, 5.0 mM

Molecule	Binding Activity on ET Receptor (R. act.) ETA [1]	Binding Activity on ET Receptor (R. act.) ETB*1 [2]	Binding Activity on ET Receptor (R. act.) ETB*2 (ETB)	further results
CC(C)C[C@@H]1NC(=O)[C@@H](CC(C)C)NC(=O)[C@H](CC(=O)O)NC(=O)[C@H](C)NC(=O)[C@@H](CC(=O)O)NC(=O)[C@@H](Cc2c[nH]c3ccccc23)NC1=O [Example 1, cyclo[-D-Asp-Ala-Asp-D-Leu-Leu-D-Trp-]] (cyclo(AD[dL]L[dW][dD]))	9.7	13	2.0	
CC(C)C[C@@H]1NC(=O)[C@@H](CC(C)C)NC(=O)[C@H](CC(=O)O)NC(=O)[C@@H]2CCCN2C(=O)[C@@H](CC(=O)O)NC(=O)[C@@H](Cc2c[nH]c3ccccc23)NC1=O [Example 9, cyclo[-D-Asp-Pro-Asp-D-Leu-Leu-D-Trp-]] (cyclo(D[dL]L[dW][dD]P))	56	140	67	
CC(C)C[C@@H]1NC(=O)[C@@H](CC(C)C)NC(=O)[C@H](CC(=O)O)NC(=O)[C@@H]2C[C@@H](O)CN2C(=O)[C@@H](CC(=O)O)NC(=O)[C@@H](Cc2c[nH]c3ccccc23)NC1=O [Example 14, cyclo[-D-Asp-Hyp-Asp-D-Leu-Leu-D-Trp-]] (cyclo(D[dL]L[dW][dD][Hyp]))	70	160	120	
CC(C)C[C@@H]1NC(=O)[C@@H](CC(C)C)NC(=O)[C@H](CC(=O)O)NC(=O)[C@H](CC(=O)O)NC(=O)[C@@H](CC(=O)O)NC(=O)[C@@H](Cc2c[nH]c3ccccc23)NC1=O [Example 16, Cyclo[-D-Asp-Asp-Asp-D-Leu-Leu-D-Trp-]] (cyclo(DD[dL]L[dW][dD]))	10	14	34	
CC(C)C[C@@H]1NC(=O)[C@@H](CC(C)C)NC(=O)[C@H](CC(=O)O)NC(=O)[C@H](Cc2cn(C=O)c3ccccc23)NC(=O)[C@@H](CC(=O)O)NC(=O)[C@@H](Cc2c[nH]c3ccccc23)NC1=O [Example 22, Cyclo[-D-Asp-Trp(For)-Asp-D-Leu-Leu-D-Trp-]] (cyclo(D[dL]L[dW][dD]W(For)))	8.3	6.7	15	
CC(C)C[C@@H]1NC(=O)[C@@H](CC(C)C)NC(=O)[C@H](CC(=O)O)NC(=O)[C@@H]2CCN2C(=O)[C@@H](CC(=O)O)NC(=O)[C@@H](Cc2c[nH]c3ccccc23)NC1=O [Example 25, Cyclo[-D-Asp-Azc-Asp-D-Leu-Leu-D-Trp-]] (cyclo([Aze]D[dL]L[dW][dD]))	30	25	57	
CC(C)C[C@@H]1NC(=O)[C@@H](CC(C)C)NC(=O)[C@H](CC(=O)O)NC(=O)[C@@H]2CCCCN2C(=O)[C@@H](CC(=O)O)NC(=O)[C@@H](Cc2c[nH]c3ccccc23)NC1=O [Example 26, Cyclo[-D-Asp-Pip-Asp-D-Leu-Leu-D-Trp-]] (cyclo(D[dL]L[dW][dD][Pip]))	25	38	73	
CC(C)C[C@@H]1NC(=O)[C@@H](Cc2cccs2)NC(=O)[C@H](CC(=O)O)NC(=O)[C@H](Cc2c[nH]c3ccccc23)NC(=O)[C@@H](CC(=O)O)NC(=O)[C@@H](Cc2c[nH]c3ccccc23)NC1=O [Example 50, Cyclo[-D-Asp-Trp-Asp-D-Thi-Leu-D-Trp-]] (cyclo(D[d2Thi]L[dW][dD]W))	4	350	57	
CC(C)C[C@@H]1NC(=O)[C@@H](C(C)C)NC(=O)[C@H](CC(=O)O)NC(=O)[C@H](Cc2c[nH]c3ccccc23)NC(=O)[C@@H](CC(=O)O)NC(=O)[C@@H](Cc2c[nH]c3ccccc23)NC1=O [Example 52, Cyclo[-D-Asp-Trp-Asp-D-Val-Leu-D-Trp-]] (cyclo(D[dV]L[dW][dD]W))	75	240	100	
CC(C)C[C@H]1NC(=O)[C@H](CC(=O)O)NC(=O)[C@H](C)NC(=O)[C@@H](CC(=O)O)NC(=O)[C@@H](Cc2c[nH]c3ccccc23)NC(=O)[C@H](Cc2c[nH]c3ccccc23)NC1=O [Example 58, Cyclo[-D-Asp-Ala-Asp-D-Leu-Trp-D-Trp-]] (cyclo(AD[dL]W[dW][dD]))	0.7	6.7	22	
cyclo[-D-Asp-Pro-Asp-D-Leu-Leu-D-Trp-]				ring closure, yield after HPLC ([3]; HONB ester (HONB/DCC preactivation)/TEA, 5.1 mM): 47.4%
cyclo[-D-Asp-Trp-Asp-D-Leu-Leu-D-Trp-]				ring closure, yield after HPLC ([3]; HONB ester (HONB/DCC preactivation)/TEA, 5.0 mM): 52.9%
cyclo[-D-Asp-Trp-Asp-D-Thg(2)-Leu-D-Trp-]				ring closure, yield after HPLC ([3]; HONB/DCC (preactivation), HCl/dioxane, TEA, 5.1 mM): 4.6%
cyclo[-D-Asp-Trp-Asp-D-tLeu-Leu-D-Trp-]				ring closure, yield after HPLC [3, 4]: 42.8%
cyclo[-D-Asp-Trp-Asp-D-γMeLeu-Leu-D-Trp-]				ring closure, yield after HPLC [3, 4]: 51.5%
